Laboratory results published in patent publication US20140289973A1, “1-Hexyl-1H-Pyrazole-4,5-Diamine Hemisulfate, and Its Use in Dyeing Compositions” (The Procter & Gamble Company, priority 2012, published 2014).

Test: Storage stability of C6-pyrazole salts, HPLC measurement of dimer formation
Assay type: physicochemical
Settings: for Amount of dimers at the time point t0: t0, sample of about 1.5 g spread on filter paper, HPLC, dimer of formula (II); for Amount of dimers at the time point t1: t1, 23 days in closed dark storage room at 21° C., controlled humidity; for Amount of dimers at the time point t2: t2, 26 days: 23 days dark, then 3 days without light protection under lab hood at room temperature, higher air humidity; for Amount of dimers at the time point t3: t3, 31 days: 5 extra days under the same conditions as t2
Protocol: As summarized in the table below, three 1-hexyl-1H-pyrazole-4,5-diamine salts were synthesized through precipitation of the free base in presence of the corresponding acids and purification to obtain the hemisulfate, sulfate and dihydrochloride salts. Each sample was then placed on paper.
In order to measure and compare the stability of the three different salts, a small amount of each sample was taken at four different time points and an HPLC analysis was conducted in order to measure the formation of the undesired dimer of formula (II).

| SMILES | Amount of dimers at the time point t0 [ppm] | Amount of dimers at the time point t1 [ppm] | Amount of dimers at the time point t2 [ppm] | Amount of dimers at the time point t3 [ppm] | Rate of formation of the dimer impurity (compared with the sulfate and dihydrochloride salts, storage conditions of table 1) | Stability compared with the corresponding sulfate and dihydrochloride salts (conditions of storage described in table 1) |
| --- | --- | --- | --- | --- | --- | --- |
| CCCCCCn1ncc(N)c1N.O=S(=O)(O)O [C6-Pyrazole sulfate] | 11 | 461 | 726 | 1083 |  |  |
| CCCCCCn1ncc(N)c1N.Cl.Cl [C6-Pyrazole x 2 HCl] | 45 | 511 | 772 | 1323 |  |  |
| CCCCCCn1ncc(N)c1N.CCCCCCn1ncc(N)c1N.O=S(=O)(O)O [C6-Pyrazole hemisulfate, 1-hexyl-1H-pyrazole-4,5-diamine hemisulfate] | 6 | 37 | 43 | 74 | much lower | more stable |
